The text below walks through data of patent US20260022118A1, “HETEROCYCLIC COMPOUNDS AS NRAS INHIBITORS” (Board of Regents, The University of Texas System, priority 2023, published 2026).

Molecules are shown by their SMILES.

In assay [1] the test system is THP-1 cells expressing G12D (NRAS G12D). As to the kind of experiment: Inhibition of NRAS G12D-mediated phosphorylation of ERK (AlphaLISA p-ERK1/2) in THP-1 cells. It is filed as cell-based. The settings on record: Homo sapiens, THP-1, 2 h, 2 hours incubation, HBSS with 0% or 10% FBS, p-ERK1/2 (Thr202/Tyr204) AlphaLISA, read-out: pERK THP-1 IC50. In a few lines: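 THP-1 cells expressing NRAS G12D, seeded in HBSS with 0% or 10% FBS, were exposed to test compound (1% DMSO final) for 2 h. p-ERK1/2 (Thr202/Tyr204) read by AlphaLISA SureFire Ultra. IC50 from curves normalized to no-inhibitor (100%) and 1 μM trametinib (0%) controls.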
On the technique in general: Alpha assays give light when donor and acceptor beads are brought close together.

A further assay concerns the target NRAS G12D C118S (Homo sapiens (Human), UniProt P01111, C118S/G12D). The assay can be described thus: NRas G12D Surface Plasmon Resonance (SPR) binding assay. The settings on record: Avi-tagged biotinylated NRAS G12D C118S on streptavidin chip, 25° C., 1:1 kinetic or steady-state fit. In a few lines: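 Biotinylated Avi-tagged NRAS G12D C118S was captured at about 600 RU on a streptavidin chip alongside a blank reference channel. Compounds were run as 10-point 1:3 dilution series in HBS-P+ pH 7.4 with 5 mM MgCl2 and 3% DMSO, using a 2–4% DMSO solvent correction. A control compound at 10 μM was injected periodically to check protein activity.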

Sequence of NRAS G12D C118S (P01111 whole entry G12D/C118S): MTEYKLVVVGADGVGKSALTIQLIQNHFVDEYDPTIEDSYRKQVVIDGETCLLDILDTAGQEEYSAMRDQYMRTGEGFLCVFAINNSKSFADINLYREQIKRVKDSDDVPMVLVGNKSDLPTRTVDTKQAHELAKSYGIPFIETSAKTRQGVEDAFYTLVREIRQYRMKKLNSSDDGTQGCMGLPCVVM

Regarding `C#Cc1c(F)ccc2cc(O)cc(-c3ncc4c([C@H]5[C@@H]6CNC[C@@H]65)nn(CCCN(C)C)c4c3F)c12` [Example 102, 4-(3-((1R,5S,6r)-3-azabicyclo[3.1.0]hexan-6-yl)-1-(3-(dimethylamino)propyl)-7-fluoro-1H-pyrazolo[4,3-c]pyridin-6-yl)-5-ethynyl-6-fluoronaphthalen-2-ol], the IC50 in assay [1] was greater than 10000 nM. Moreover, at NRAS G12D C118S, the dissociation constant Kd came to 7600 nM.

Take `C#Cc1c(F)ccc2cc(O)cc(-c3nc(Nc4ccccc4)c4c([C@H]5[C@@H]6CNC[C@@H]65)nn(C5CC5)c4c3F)c12` [Example 83, 4-(3-((1R,5S,6r)-3-azabicyclo[3.1.0]hexan-6-yl)-1-cyclopropyl-7-fluoro-4-(phenylamino)-1H-pyrazolo[4,3-c]pyridin-6-yl)-5-ethynyl-6-fluoronaphthalen-2-ol]: the IC50 in assay [1] amounted to 205 nM. The compound further yielded a Kd at NRAS G12D C118S of 49.5 nM.

As for `C#Cc1c(F)ccc2cc(O)cc(-c3ncc4c(c(C)cn4C4[C@H]5CNC[C@@H]45)c3F)c12` (stereo partly drawn) [Example 40, 4-[1-[(1R,5S)-3-azabicyclo[3.1.0]hexan-6-yl]-4-fluoro-3-methyl-pyrrolo[2,3-c]pyridin-5-yl]-5-ethynyl-6-fluoro-naphthalen-2-ol], the half-inhibitory concentration (IC50) in assay [1] was greater than 10000 nM. At NRAS G12D C118S, this compound displayed a dissociation constant Kd of 1130 nM.

For the compound `C#Cc1c(F)ccc2cc(O)cc(-c3nc(OC)c4c([C@H]5[C@@H]6CNC[C@@H]65)nn(C5CC5)c4c3F)c12` [Example 61, 4-(3-((1R,5S,6r)-3-azabicyclo[3.1.0]hexan-6-yl)-1-cyclopropyl-7-fluoro-4-methoxy-1H-pyrazolo[4,3-c]pyridin-6-yl)-5-ethynyl-6-fluoronaphthalen-2-ol], the concentration for half-maximal inhibition (IC50) in assay [1] was 477 nM. The same compound displayed a Kd at NRAS G12D C118S of 15.8 nM.

As for `C#Cc1c(F)ccc2cc(O)cc(-c3ncc4c([C@H]5[C@@H]6CNC[C@@H]65)nn(C5CC5)c4c3F)c12` [Example 4, 4-(3-((1R,5S,6r)-3-azabicyclo[3.1.0]hexan-6-yl)-1-cyclopropyl-7-fluoro-1H-pyrazolo[4,3-c]pyridin-6-yl)-5-ethynyl-6-fluoronaphthalen-2-ol 2,2,2-trifluoroacetate], the IC50 in assay [1] turned out to be 394 nM. Also, the Kd at NRAS G12D C118S was determined as 20.5 nM.

Take `C#Cc1c(F)ccc2cc(O)cc(-c3ncc4c([C@H]5[C@@H]6CNC(CO)[C@@H]65)nn(C)c4c3F)c12` (stereo partly drawn) [Example 97, 5-ethynyl-6-fluoro-4-(7-fluoro-3-((1S,5R,6S)-2-(hydroxymethyl)-3-azabicyclo[3.1.0]hexan-6-yl)-1-methyl-1H-pyrazolo[4,3-c]pyridin-6-yl)naphthalen-2-ol]: the IC50 in assay [1] turned out to be 2220 nM. The Kd at NRAS G12D C118S is 190 nM.

As for `C#Cc1c(F)ccc2cc(O)cc(-c3nc(OC4CC4)c4c([C@H]5[C@@H]6CNC[C@@H]65)nn(C5CC5)c4c3F)c12` [Example 70, 4-(3-((1R,5S,6r)-3-azabicyclo[3.1.0]hexan-6-yl)-4-cyclopropoxy-1-cyclopropyl-7-fluoro-1H-pyrazolo[4,3-c]pyridin-6-yl)-5-ethynyl-6-fluoronaphthalen-2-ol], in assay [1], the IC50 worked out at 169 nM. This compound yielded a Kd on NRAS G12D C118S of 33.3 nM.

With `C#Cc1c(F)ccc2cc(O)cc(-c3ncc4c(N5CC6CCCC5CN6)nn(C)c4c3F)c12` (stereo not drawn) [Example 36, 4-[3-(6,8-diazabicyclo[3.2.2]nonan-6-yl)-7-fluoro-1-methyl-pyrazolo[4,3-c]pyridin-6-yl]-5-ethynyl-6-fluoro-naphthalen-2-ol], the IC50 in assay [1] stood at 12800 nM. At NRAS G12D C118S, this compound gave an equilibrium dissociation constant (Kd) of 4030 nM.

Turning to `C#Cc1c(F)ccc2cc(O)cc(-c3ncc4c(C5C6CNCC65)nn(C5CC5(F)F)c4c3F)c12` (stereo not drawn) [Example 49, 4-[3-(3-azabicyclo[3.1.0]hexan-6-yl)-1-(2,2-difluorocyclopropyl)-7-fluoro-pyrazolo[4,3-c]pyridin-6-yl]-5-ethynyl-6-fluoro-naphthalen-2-ol], the IC50 in assay [1] turned out to be 438 nM. Besides, binding on NRAS G12D C118S was put at a Kd of 81.5 nM.

One may read the IC50 as the point on the concentration scale where inhibition reaches its midpoint. For orientation: Kd means the constant that tells how readily two partners part at equilibrium. A lower Kd goes with a tighter complex.
